Structures are written as SMILES. The source made the active and inactive calls. No cut-off for these calls is given here.

The text below walks through data of ChEMBL document CHEMBL6121019, “Design, synthesis and biological evaluation of bisnoralcohol derivatives as novel IRF4 inhibitors for the treatment of multiple myeloma” (Eur J Med Chem, 2025).

Data set [1] addresses T1, Interferon regulatory factor 4 (Homo sapiens, UniProt Q15306).
T1 sequence (Q15306 whole entry): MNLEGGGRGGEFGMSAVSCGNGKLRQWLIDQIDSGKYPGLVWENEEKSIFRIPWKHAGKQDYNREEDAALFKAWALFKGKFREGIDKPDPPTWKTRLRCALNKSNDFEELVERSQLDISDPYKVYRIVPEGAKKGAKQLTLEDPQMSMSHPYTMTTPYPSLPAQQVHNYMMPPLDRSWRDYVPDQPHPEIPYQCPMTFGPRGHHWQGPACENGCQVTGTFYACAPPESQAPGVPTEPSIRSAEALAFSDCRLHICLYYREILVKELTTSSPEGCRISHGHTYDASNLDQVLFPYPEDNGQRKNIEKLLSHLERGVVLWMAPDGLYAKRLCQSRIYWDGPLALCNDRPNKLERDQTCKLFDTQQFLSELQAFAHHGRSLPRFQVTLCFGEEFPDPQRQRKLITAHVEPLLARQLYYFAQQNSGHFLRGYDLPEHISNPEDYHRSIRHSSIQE
As to the kind of experiment: Binding affinity to IRF4 (unknown origin) assessed as dissociation constant by SPR analysis.

The target of data set [2] is T2, Interferon regulatory factor 4 (Homo sapiens) (UniProt Q15306).
T2 sequence (whole entry): T1 sequence (Q15306 whole entry)
As to the kind of experiment: Induction of thermal stabilization of IRF4 in human NCI-H929 cells at 42 to 42.3 degree C by […] method. The class given is cell-based.

The test system of data set [3] is MM.1R. As to the kind of experiment: Antiproliferative activity against human MM1.R cells with siRNA mediated IRF4#2 knockdown at 0.125 to 1 uM measured upto 5 days by MTS assay. The class given is functional, cell-based. Particulars: dose 0.125-1 µM, time <= 5.0 day. On the technique in general: Tetrazolium dyes change colour on reduction, which living cells bring about.

Data set [4] has as its system RPMI-8226. Nature of the data set: Antiproliferative activity against human RPMI-8226 cells overexpressing IRF4 at 0.125 to 1 uM measured after 72 hrs by MTS assay. The format is functional, cell-based. Particulars: dose 0.125-1 µM.
In data set [5] the test system is RPMI-8226. Nature of the data set: Effect on IRF4 expression in human RPMI-8226 cells by Western blot analysis. The class given is functional, cell-based. For orientation: In western blotting, separated proteins are transferred to a membrane and probed.
For data set [6], the system named is NCI-H929. Nature of the data set: Downregulation of CCNC expression in human NCI-H929 cells measured after 24 hrs by qRT-PCR analysis. The class given is functional, cell-based. The following applies: dose 0.125-1 µM. For orientation: In qPCR the cycle at which signal appears reflects the starting amount.
Data set [7] has as its system NCI-H929. Nature of the data set: Downregulation of E2F5 expression in human NCI-H929 cells measured after 24 hrs by qRT-PCR analysis. The format is functional, cell-based. The following applies: dose 0.125-1 µM.
For data set [8], the system named is NCI-H929. Nature of the data set: Inhibition of ERK phosphorylation level in human NCI-H929 cells at 0.1 to 1 uM by Western blot analysis. The class given is functional, cell-based. The following applies: dose 0.1-1 µM.
The subject of data set [9] is NCI-H929. As to the kind of experiment: Induction of cell cycle arrest in human NCI-H929 cells assessed as inhibition of cyclin B1 protein expression at 0.1 to 1 uM. The class given is functional, cell-based. Particulars: dose 0.1-1 µM.
Data set [10] has as its system MM.1R. As to the kind of experiment: Induction of cell cycle arrest in human MM1.R cells assessed as inhibition of cyclin E1 protein expression at 0.1 to 1 uM. The class given is functional, cell-based. Particulars: dose 0.1-1 µM.
The test system of data set [11] is MM.1R. Nature of the data set: Induction of cell cycle arrest in human MM1.R cells assessed as inhibition of CMYC protein expression at 0.1 to 1 uM. The class given is functional, cell-based. The following applies: dose 0.1-1 µM.
Data set [12] relates to NCI-H929. Nature of the data set: Antitumor activity against human NCI-H929 cells xenografted in Balb/C nude mouse model assessed as reduction in Ki67 expression at 25 mg/kg by immunohistochemical staining based analysis. The format is functional, organism-based.
Data set [13] concerns NCI-H929. As to the kind of experiment: Antiproliferative activity against human NCI-H929 cells assessed as inhibition of cell viability measured after 72 hrs by MTS assay. The format is functional, cell-based. The following applies: NCI-H929, 72 h.
The nature of data set [14]: AUC (0 to infinity) in ICR mouse plasma at 1.0 mg/kg, iv. The class given is ADME, organism-based.
Data set [15] is described as follows: Apparent volume of distribution in ICR mouse plasma at 1.0 mg/kg, iv. The class given is ADME, organism-based. The following applies: read-out: Vz.
Data set [16] is described as follows: Clearance in ICR mouse plasma at 1.0 mg/kg, iv. The class given is ADME, organism-based.
Data set [17] is described as follows: AUC (0 to infinity) in ICR mouse plasma at 10 mg/kg, po. The class given is ADME, organism-based.

For the molecule `COc1ccc(NC(=O)[C@@H](C)[C@H]2CC[C@H]3[C@@H]4C(=O)C=C5C(C)(C)C(=O)C(C#N)=C[C@]5(C)[C@H]4CC[C@]23C)cc1`, the Kd (as a rule, the concentration at which binding is half-saturated) in data set [1] amounted to 1280 nM. The outcome (in [2]; in the data set on MM.1R [3]; in the data set on RPMI-8226 [4]; in the data set on NCI-H929 [6]; with NCI-H929 [7]; in the data set with NCI-H929 [9]) was Active. Further, the result in the data set on MM.1R [10], in the data set with MM.1R [11] and with NCI-H929 [12] was Active. In addition, in the data set with RPMI-8226 [5], the Activity result is reported as “Active; Compound Showed Low Expression”. The inhibition result with NCI-H929 [8] is “Active”. Also, in the data set on NCI-H929 [13], the IC50 (as a rule, the midpoint of a concentration-inhibition curve) turned out to be 80 nM. The results for the AUC(0-inf) in data set [14] and in data set [17] were 86 ng·h/mL and 463 ng·h/mL, respectively. The Vd in data set [15] turned out to be 20.8 L/kg. Further, the clearance (as a rule, a measure of how efficiently the substance is removed, as volume per time) in [16] was 197 mL/min/kg.
